From EP4001279A1, “NOVEL SPIROPYRROLIDINE DERIVED ANTIVIRAL AGENTS” (Enanta Pharmaceuticals, Inc., priority 2020, dated 2022) come the findings set out here.

Bounds are passed on as bounds.

Broadly, the EC50 is the concentration needed to bring the measured effect to its halfway point. A lower EC50 goes with an effect from little substance.

The experiment has as its system 229E human corona virus (hCoV). In words: 229E live virus assay (CPE, ATPlite readout in MRC-5 cells). The format is cell-based, hCoV-229E. As to conditions: Human coronavirus 229E, MRC5, hCoV-229E live virus, MOI 0.05, ATPlite readout, run in duplicate. (In general: Cellular ATP, detected with luciferase, serves as a proxy for viable cell number.)

`COc1cccc2[nH]c(C(=O)N(C)[C@@H](CC(C)(C)C)C(=O)N3C[C@]4(C[C@H]3C#N)C(=O)Nc3ccccc34)cc12` [Example 85] gave an EC50 below 0.1 µM. Turning to `CN(C(=O)c1cc2c(F)c(F)ccc2[nH]1)[C@@H](CC(C)(C)C)C(=O)N1C[C@]2(C[C@H]1C#N)C(=O)Nc1ccccc12` [Example 86], the EC50 is below 0.1 µM.

`CN(C(=O)c1cc2c(F)cccc2[nH]1)[C@@H](CC(C)(C)C)C(=O)N1C[C@]2(C[C@H]1C#N)C(=O)Nc1ccccc12` [Example 87] displayed an EC50 below 0.1 µM. Under `CN(C(=O)c1cc2c(F)cc(F)cc2[nH]1)[C@@H](CC(C)(C)C)C(=O)N1C[C@]2(C[C@H]1C#N)C(=O)Nc1ccccc12` [Example 88] stands below 0.1 µM.

For the compound `CN(C(=O)OCc1ccccc1)[C@@H](CC1CCC1)C(=O)N1C[C@]2(C[C@H]1C#N)C(=O)Nc1ccccc12` [Example 89], the EC50 fell in the range of 0.1 to 1 µM. Under `CN(C(=O)c1cc2c(F)cc(F)cc2[nH]1)[C@@H](CC1CCC1)C(=O)N1C[C@]2(C[C@H]1C#N)C(=O)Nc1ccccc12` [Example 91] stands below 0.1 µM; under `COc1cccc2[nH]c(C(=O)N(C)[C@@H](CC3CCC3)C(=O)N3C[C@]4(C[C@H]3C#N)C(=O)Nc3ccccc34)cc12` [Example 92], below 0.1 µM; under `CN(C(=O)c1cc2c(F)cccc2[nH]1)[C@@H](CC1CCC1)C(=O)N1C[C@]2(C[C@H]1C#N)C(=O)Nc1ccccc12` [Example 93], below 0.1 µM.

Turning to `CCN(C(=O)c1cc2c(F)cccc2[nH]1)[C@@H](CC(C)C)C(=O)N1C[C@]2(C[C@H]1C#N)C(=O)Nc1ccccc12` [Example 95], the EC50 is 0.1 to 1 µM. `C=CCN(C(=O)OCc1ccccc1)[C@@H](CC(C)C)C(=O)N1C[C@]2(C[C@H]1C#N)C(=O)Nc1ccccc12` [Example 96] yielded an EC50 of 0.1 to 1 µM. For `CCCN(C(=O)OCc1ccccc1)[C@@H](CC(C)C)C(=O)N1C[C@]2(C[C@H]1C#N)C(=O)Nc1ccccc12` [Example 97] the value was above 1 µM. Under `CCCN(C(=O)c1cc2c(F)cccc2[nH]1)[C@@H](CC(C)C)C(=O)N1C[C@]2(C[C@H]1C#N)C(=O)Nc1ccccc12` [Example 98] stands 0.1 to 1 µM; under `CC(C)CC[C@@H](C(=O)N1C[C@]2(C[C@H]1C#N)C(=O)Nc1ccccc12)N(C)C(=O)OCc1ccccc1` [Example 100], 0.1 to 1 µM. For `CN(C(=O)OCc1ccccc1)[C@@H](CC1CC1)C(=O)N1C[C@]2(C[C@H]1C#N)C(=O)Nc1ccccc12` [Example 102] the value was above 1 µM; for `CC(C)CC[C@@H](C(=O)N1C[C@]2(C[C@H]1C#N)C(=O)Nc1ccccc12)N(C)C(=O)c1cc2c(F)cc(F)cc2[nH]1` [Example 104], below 0.1 µM. As to `COc1cccc2[nH]c(C(=O)N(C)[C@@H](CCC(C)C)C(=O)N3C[C@]4(C[C@H]3C#N)C(=O)Nc3ccccc34)cc12` [Example 105], the EC50 is below 0.1 µM. For `COc1cccc2[nH]c(C(=O)N(C)[C@@H](CC3CCCCC3)C(=O)N3C[C@]4(C[C@H]3C#N)C(=O)Nc3ccccc34)cc12` [Example 113] the value was below 0.1 µM; for `COc1cccc2[nH]c(C(=O)N(C)[C@@H](CC3CC3)C(=O)N3C[C@]4(C[C@H]3C#N)C(=O)Nc3ccccc34)cc12` [Example 114], below 0.1 µM; for `CN(C(=O)c1cc2c(F)cc(F)cc2[nH]1)[C@@H](CC1CC1)C(=O)N1C[C@]2(C[C@H]1C#N)C(=O)Nc1ccccc12` [Example 115], below 0.1 µM. Under `CN(C(=O)c1cc2c(F)cccc2[nH]1)[C@@H](CC1CC1)C(=O)N1C[C@]2(C[C@H]1C#N)C(=O)Nc1ccccc12` [Example 116] stands below 0.1 µM; under `COc1cccc2[nH]c(C(=O)N[C@@H](CC(C)C)C(=O)N3C[C@]4(C[C@H]3C=O)C(=O)N(C)c3ccccc34)cc12` [Example 119], 0.1 to 1 µM. Under `COc1cccc2[nH]c(C(=O)N[C@@H](CC(C)C)C(=O)N3C[C@]4(C[C@H]3C#N)C(=O)N(C)c3ccccc34)cc12` [Example 120] stands above 1 µM.

In turn, `COc1cccc2[nH]c(C(=O)N(C)[C@@H](CC(C)C)C(=O)N3C[C@]4(C[C@H]3C#N)C(=O)N(C)c3ccccc34)cc12` [Example 121] gave an EC50 of 0.1 to 1 µM. For `CC(C)C[C@H](NC(=O)NCc1ccccc1)C(=O)N1C[C@]2(C[C@H]1C#N)C(=O)Nc1ccccc12` [Example 122] the value was 0.1 to 1 µM.

In turn, `CC(C)(F)C[C@H](NC(=O)c1cc2c(F)cc(F)cc2[nH]1)C(=O)N1C[C@]2(C[C@H]1C#N)C(=O)Nc1ccc(Cl)cc12` [Example 123] came in with an EC50 below 0.1 µM. Under `CCCOC[C@H](NC(=O)c1cc2c(OC)cccc2[nH]1)C(=O)N1C[C@]2(C[C@H]1C#N)C(=O)Nc1ccccc12` [Example 126] stands below 0.1 µM; under `C#CCOC[C@H](NC(=O)c1cc2c(OC)cccc2[nH]1)C(=O)N1C[C@]2(C[C@H]1C#N)C(=O)Nc1ccccc12` [Example 127], below 0.1 µM.

In turn, `CC(C)(C)OC(=O)NC[C@H](NC(=O)c1cc2c(F)cc(F)cc2[nH]1)C(=O)N1C[C@]2(C[C@H]1C#N)C(=O)Nc1ccccc12` [Example 128] came in with an EC50 above 1 µM. Regarding `N#C[C@@H]1C[C@@]2(CN1C(=O)[C@H](COCc1cnn[nH]1)NC(=O)c1cc3c(F)cc(F)cc3[nH]1)C(=O)Nc1ccccc12` [Example 129], the EC50 is above 1 µM.

Compound `CC(C)(C)C[C@H](NC(=O)c1ccc2ncc(C(F)(F)F)cc2c1)C(=O)N1C[C@]2(C[C@H]1C#N)C(=O)Nc1ccccc12` [Example 134] registered a concentration giving a half-maximal response (EC50) below 0.1 µM. For `Cc1cnc2ccc(C(=O)N[C@@H](CC(C)(C)C)C(=O)N3C[C@]4(C[C@H]3C#N)C(=O)Nc3ccccc34)cc2c1` [Example 135] the value was below 0.1 µM; for `CC(C)(C)C[C@H](NC(=O)c1ccc2ncc(C3CC3)cc2c1)C(=O)N1C[C@]2(C[C@H]1C#N)C(=O)Nc1ccccc12` [Example 136], below 0.1 µM. Turning to `CC(C)(C)C[C@H](NC(=O)c1cc(OC(F)(F)F)c2ncccc2c1)C(=O)N1C[C@]2(C[C@H]1C#N)C(=O)Nc1ccccc12` [Example 137], the concentration for a half-maximal effect (EC50) was below 0.1 µM. Under `CC(C)(C)C[C@H](NC(=O)c1cc(Cl)c2ncccc2c1)C(=O)N1C[C@]2(C[C@H]1C#N)C(=O)Nc1ccccc12` [Example 138] stands below 0.1 µM; under `CC(C)(C)C[C@H](NC(=O)c1cc(OC(F)F)c2ncccc2c1)C(=O)N1C[C@]2(C[C@H]1C#N)C(=O)Nc1ccccc12` [Example 139], below 0.1 µM.

Regarding `CC(C)(C)C[C@H](NC(=O)c1cn(-c2ccc(Cl)cc2)nn1)C(=O)N1C[C@]2(C[C@H]1C#N)C(=O)Nc1ccccc12` [Example 140], the EC50 is below 0.1 µM. Under `CC(C)(C)C[C@H](NC(=O)c1cn(C2CC2)nn1)C(=O)N1C[C@]2(C[C@H]1C#N)C(=O)Nc1ccccc12` [Example 141] stands below 0.1 µM; under `CC(C)(C)C[C@H](NC(=O)c1cn(-c2cccc(Cl)c2)nn1)C(=O)N1C[C@]2(C[C@H]1C#N)C(=O)Nc1ccccc12` [Example 142], below 0.1 µM. Consider `CC(C)(C)C[C@H](NC(=O)c1cn(CC(F)(F)F)nn1)C(=O)N1C[C@]2(C[C@H]1C#N)C(=O)Nc1ccccc12` [Example 143], for which the concentration for a half-maximal effect (EC50) is below 0.1 µM.

Consider `CC(C)(C)C[C@H](NC(=O)c1cnn(CC(F)(F)F)c1)C(=O)N1C[C@]2(C[C@H]1C#N)C(=O)Nc1ccccc12` [Example 144], for which the EC50 was below 0.1 µM.

With `CC(C)(C)C[C@H](NC(=O)c1cnn(-c2ccc(C(F)(F)F)cc2)c1)C(=O)N1C[C@]2(C[C@H]1C#N)C(=O)Nc1ccccc12` [Example 145], the concentration for a half-maximal effect (EC50) is below 0.1 µM. For `Cc1cc2cc(C(=O)N[C@@H](CC(C)(C)C)C(=O)N3C[C@]4(C[C@H]3C#N)C(=O)Nc3ccccc34)cc(Cl)c2nc1C` [Example 147] the value was below 0.1 µM; for `CC(C)(C)C[C@H](NC(=O)c1cn(C2CCC2)nn1)C(=O)N1C[C@]2(C[C@H]1C#N)C(=O)Nc1ccccc12` [Example 148], below 0.1 µM. For `CC(C)C[C@@H](C(=O)N1C[C@]2(C[C@H]1C=O)C(=O)Nc1ccccc12)N(C)C(=O)c1cc2c(F)cc(F)cc2[nH]1` [Example 149] the value was below 0.1 µM; for `CC(C)C[C@@H](C(=O)N1C[C@]2(C[C@H]1C=O)C(=O)Nc1ccccc12)N(C)C(=O)c1cc2c(F)cc(F)c(F)c2[nH]1` [Example 150], below 0.1 µM; for `CC(C)C[C@@H](C(=O)N1C[C@]2(C[C@H]1C(O)S(=O)(=O)O)C(=O)Nc1ccccc12)N(C)C(=O)c1cc2c(F)cc(F)cc2[nH]1` (stereo partly shown) [Example 153], below 0.1 µM. For `CC(C)C[C@@H](C(=O)N1C[C@]2(C[C@H]1C(O)S(=O)(=O)O)C(=O)Nc1ccccc12)N(C)C(=O)c1cc2c(F)cc(F)c(F)c2[nH]1` (stereo partly shown) [Example 154] the value was below 0.1 µM. `CC(C)C[C@@H](C(=O)N1C[C@]2(C[C@H]1C(=O)C(=O)NC1CCCCC1)C(=O)Nc1ccccc12)N(C)C(=O)c1cc2c(F)cc(F)cc2[nH]1` [Example 155] came in with an EC50 above 1 µM.

`CC(C)C[C@@H](C(=O)N1C[C@]2(C[C@H]1C(=O)CO)C(=O)Nc1ccccc12)N(C)C(=O)c1cc2c(F)cc(F)cc2[nH]1` [Example 157] returned an EC50 of 0.1 to 1 µM. For `CC(C)C[C@@H](C(=O)N1C[C@]2(C[C@H]1C(=O)CO)C(=O)Nc1ccccc12)N(C)C(=O)c1cc2c(F)cc(F)c(F)c2[nH]1` [Example 158] the value was 0.1 to 1 µM.

Consider `CC(C)C[C@@H](C(=O)N1C[C@]2(C[C@H]1C(=O)CCl)C(=O)Nc1ccccc12)N(C)C(=O)c1cc2c(F)cc(F)c(F)c2[nH]1` [Example 159], for which the EC50 was above 1 µM. For `CC(C)C[C@@H](C(=O)N1C[C@]2(C[C@H]1C#N)C(=O)Nc1ccccc12)N(C(=O)OCc1ccccc1)C(C)C` [Example 160] the value was above 1 µM; for `CC(C)N(C(=O)OC(C)(C)C)[C@@H](Cc1ccccc1)C(=O)N1C[C@]2(C[C@H]1C#N)C(=O)Nc1ccccc12` [Example 161], above 1 µM.

`CC(C)C[C@@H](C(=O)N1C[C@]2(C[C@H]1C#N)C(=O)Nc1ccccc12)N(C)C(=O)c1cccc(Cl)c1` [Example 167] came in with a concentration for a half-maximal effect (EC50) below 0.1 µM. For `CC(C)C[C@@H](C(=O)N1C[C@]2(C[C@H]1C#N)C(=O)Nc1ccccc12)N(C)C(=O)c1ccc(Cl)cc1Cl` [Example 168] the value was below 0.1 µM.
